Results published in patent US20210254272A1, “TEXTILES HAVING ANTIMICROBIAL PROPERTIES” (Livinguard AG, priority 2015, published 2021).

Experiments:
[1] = Leaching: 10 grams fabric in 100 milliliters distilled water, 7 days, GC-MS; assay type: physicochemical
Method: To test for a potential leaching of the antimicrobial agents fixed to the textile material, the following test was performed. A test fabric of polyester 65%/cotton 35% with 210 g/m2 was treated with polyhexamethylenebiguanide (PHMB) 0.5%, silver chloride 0.075%, octadecylaminomethyl trihydroxysilylpropyl ammonium chloride (organosilane) 0.4%, and propiconazole 0.5%
The treated textile material was put into distilled water at a ratio of 1:10. Specifically, a fabric of 10 grams was soaked in 100 milliliters of distilled water. The fabric was incubated in the water for 7 days at room temperature, i.e. between 21 and 25° C.
Following said incubation time, the fabric was removed from the water and the exposed water was tested for the presence of the above five active ingredients using gas chromatography-mass spectrometry (GC-MS).

E. coli (ATCC 25922) = test: AATCC Test Method 100-2012 antibacterial activity of the treated textile, after 25 washes and 12 abrasion cycles, contact time 60 minutes; assay type: cell-based; conditions: for Log reduction of antimicrobial performance: 1% o.w.f; for Log reduction of antimicrobial performance in 100 GSM Polyester fabric / Log reduction of antimicrobial performance in 100 GSM cotton fabric / Log reduction of antimicrobial performance in 300 GSM Polyester fabric / Log reduction of antimicrobial performance in 300 GSM cotton fabric / Performance Test-Log reduction of antimicrobial performance: 2 min; for Performance Test-Log reduction of antimicrobial performance: pad process, single agent 5 gm/lit
Method: The antibacterial activity of the textile was tested in accordance with AATCC Test Method 100-2012. Prior to the test, the fabric was cut into coupons of 2×4 inches and washed separately 25 times, and exposed to 12 abrasion cycles, as per US EPA protocol 90072PA4 (described further below). The tests were made against E. coli (ATCC 25922). Contact time was 60 minutes, after inoculating with 10^8 CFU per coupon.

[2] = exhaust 80° C., 60 min, curing 180° C., dosage 0.1% o.w.f
[3] = exhaust 80° C., 60 min, curing 180° C., dosage 0.2% o.w.f
[4] = exhaust 80° C., 60 min, curing 180° C., dosage 0.5% o.w.f
[5] = exhaust 80° C., 60 min, curing 180° C., dosage 0.8% o.w.f
[6] = exhaust 80° C., 60 min, curing 180° C., dosage 1.0% o.w.f

CCCCCCCCCCCCCCCCCC[N+](C)(C)CCC[Si](OC)(OC)OC [Organosilane, dimethyloctadecyl[3-(trimethoxysilyl)propyl] ammonium chloride]
Extracted water Conc, ppm [1]: BDL (BDL-below detection limit Detection limit: 1 parts per million (ppm)) | Log reduction of antimicrobial performance of each active ingredient (E. coli (ATCC 25922); exhaust 60° C., solution dosage 1% o.w.f, process time 60 min): 1.5 Log | Log reduction of antimicrobial performance of each active ingredient (E. coli (ATCC 25922); exhaust 60° C., solution dosage 1% o.w.f, process time 90 min): 1.7 Log | Log reduction of antimicrobial performance of each active ingredient (E. coli (ATCC 25922); exhaust 60° C., solution dosage 1% o.w.f, process time 120 min): 1.8 Log | Log reduction of antimicrobial performance of each active ingredient (E. coli (ATCC 25922); exhaust 60° C., solution dosage 1% o.w.f, process time 180 min): 1.8 Log | Log reduction of antimicrobial performance of each active ingredient (E. coli (ATCC 25922); exhaust 60° C., solution dosage 1% o.w.f, process time 240 min): 1.73 Log | Log reduction of antimicrobial performance (E. coli (ATCC 25922); exhaust 80° C., 60 min, curing 170° C., curing dwell time 0.5 min): 0.3 Log | Log reduction of antimicrobial performance (E. coli (ATCC 25922); exhaust 80° C., 60 min, curing 170° C., curing dwell time 1.0 min): 0.5 Log | Log reduction of antimicrobial performance (E. coli (ATCC 25922); exhaust 80° C., 60 min, curing 170° C., curing dwell time 1.5 min): 0.6 Log | Log reduction of antimicrobial performance (E. coli (ATCC 25922); exhaust 80° C., 60 min, curing 170° C., curing dwell time 2.0 min): 1.2 Log | Log reduction of antimicrobial performance (E. coli (ATCC 25922); exhaust 80° C., 60 min, curing 170° C., curing dwell time 2.5 min): 1.2 Log | Log reduction of antimicrobial performance (E. coli (ATCC 25922); exhaust 80° C., 60 min, curing 170° C., curing dwell time 3.0 min): 0.75 Log | Log reduction of antimicrobial performance (E. coli (ATCC 25922); exhaust 80° C., 60 min, curing 180° C., curing dwell time 0.5 min): 1.5 Log | Log reduction of antimicrobial performance (E. coli (ATCC 25922); exhaust 80° C., 60 min, curing 180° C., curing dwell time 1.0 min): 1.7 Log | Log reduction of antimicrobial performance (E. coli (ATCC 25922); exhaust 80° C., 60 min, curing 180° C., curing dwell time 1.5 min): 1.8 Log | Log reduction of antimicrobial performance (E. coli (ATCC 25922); exhaust 80° C., 60 min, curing 180° C., curing dwell time 2.0 min): 3.9 Log | Log reduction of antimicrobial performance (E. coli (ATCC 25922); exhaust 80° C., 60 min, curing 180° C., curing dwell time 2.5 min): 3.8 Log | Log reduction of antimicrobial performance (E. coli (ATCC 25922); exhaust 80° C., 60 min, curing 180° C., curing dwell time 3.0 min): 3.7 Log | Log reduction of antimicrobial performance (E. coli (ATCC 25922); exhaust 80° C., 60 min, curing 190° C., curing dwell time 0.5 min): 0.6 Log | Log reduction of antimicrobial performance (E. coli (ATCC 25922); exhaust 80° C., 60 min, curing 190° C., curing dwell time 1.0 min): 1.1 Log | Log reduction of antimicrobial performance (E. coli (ATCC 25922); exhaust 80° C., 60 min, curing 190° C., curing dwell time 1.5 min): 1.5 Log | Log reduction of antimicrobial performance (E. coli (ATCC 25922); exhaust 80° C., 60 min, curing 190° C., curing dwell time 2.0 min): 2.55 Log | Log reduction of antimicrobial performance (E. coli (ATCC 25922); exhaust 80° C., 60 min, curing 190° C., curing dwell time 2.5 min): 2.46 Log | Log reduction of antimicrobial performance (E. coli (ATCC 25922); exhaust 80° C., 60 min, curing 190° C., curing dwell time 3.0 min): 1.2 Log | Log reduction of antimicrobial performance (E. coli (ATCC 25922); exhaust 80° C., 60 min, curing temperature 100 ° C.): 0.17 Log | Log reduction of antimicrobial performance (E. coli (ATCC 25922); exhaust 80° C., 60 min, curing temperature 120 ° C.): 0.56 Log | Log reduction of antimicrobial performance (E. coli (ATCC 25922); exhaust 80° C., 60 min, curing temperature 140 ° C.): 0.97 Log | Log reduction of antimicrobial performance (E. coli (ATCC 25922); exhaust 80° C., 60 min, curing temperature 160 ° C.): 1.11 Log | Log reduction of antimicrobial performance (E. coli (ATCC 25922); exhaust 80° C., 60 min, curing temperature 165 ° C.): 1.16 Log | Log reduction of antimicrobial performance (E. coli (ATCC 25922); exhaust 80° C., 60 min, curing temperature 170 ° C.): 1.26 Log | Log reduction of antimicrobial performance (E. coli (ATCC 25922); exhaust 80° C., 60 min, curing temperature 175 ° C.): 2.16 Log | Log reduction of antimicrobial performance (E. coli (ATCC 25922); exhaust 80° C., 60 min, curing temperature 180 ° C.): 2.56 Log | Log reduction of antimicrobial performance (E. coli (ATCC 25922); exhaust 80° C., 60 min, curing temperature 185 ° C.): 2.59 Log | Log reduction of antimicrobial performance (E. coli (ATCC 25922); exhaust 80° C., 60 min, curing temperature 190 ° C.): 2.61 Log | Log reduction of antimicrobial performance (E. coli (ATCC 25922); exhaust 80° C., 60 min, curing temperature 195 ° C.): 2.63 Log | Log reduction of antimicrobial performance in 100 GSM Polyester fabric (E. coli (ATCC 25922); [2]): 0.73 Log | Log reduction of antimicrobial performance in 100 GSM cotton fabric (E. coli (ATCC 25922); [2]): 0.81 Log | Log reduction of antimicrobial performance in 300 GSM Polyester fabric (E. coli (ATCC 25922); [2]): 0.75 Log | Log reduction of antimicrobial performance in 300 GSM cotton fabric (E. coli (ATCC 25922); [2]): 0.82 Log | Log reduction of antimicrobial performance in 100 GSM Polyester fabric (E. coli (ATCC 25922); [3]): 1.67 Log | Log reduction of antimicrobial performance in 100 GSM cotton fabric (E. coli (ATCC 25922); [3]): 1.67 Log | Log reduction of antimicrobial performance in 300 GSM Polyester fabric (E. coli (ATCC 25922); [3]): 1.65 Log | Log reduction of antimicrobial performance in 300 GSM cotton fabric (E. coli (ATCC 25922); [3]): 1.68 Log | Log reduction of antimicrobial performance in 100 GSM Polyester fabric (E. coli (ATCC 25922); [4]): 1.79 Log | Log reduction of antimicrobial performance in 100 GSM cotton fabric (E. coli (ATCC 25922); [4]): 1.83 Log | Log reduction of antimicrobial performance in 300 GSM Polyester fabric (E. coli (ATCC 25922); [4]): 1.80 Log | Log reduction of antimicrobial performance in 300 GSM cotton fabric (E. coli (ATCC 25922); [4]): 1.83 Log | Log reduction of antimicrobial performance in 100 GSM Polyester fabric (E. coli (ATCC 25922); [5]): 2.19 Log | Log reduction of antimicrobial performance in 100 GSM cotton fabric (E. coli (ATCC 25922); [5]): 2.17 Log | Log reduction of antimicrobial performance in 300 GSM Polyester fabric (E. coli (ATCC 25922); [5]): 2.20 Log | Log reduction of antimicrobial performance in 300 GSM cotton fabric (E. coli (ATCC 25922); [5]): 2.18 Log | Log reduction of antimicrobial performance in 100 GSM Polyester fabric (E. coli (ATCC 25922); [6]): 2.58 Log | Log reduction of antimicrobial performance in 100 GSM cotton fabric (E. coli (ATCC 25922); [6]): 2.56 Log | Log reduction of antimicrobial performance in 300 GSM Polyester fabric (E. coli (ATCC 25922); [6]): 2.58 Log | Log reduction of antimicrobial performance in 300 GSM cotton fabric (E. coli (ATCC 25922); [6]): 2.57 Log | Log reduction of antimicrobial performance of each active ingredient (E. coli (ATCC 25922); exhaust 80° C., 60 min, dosage 1% o.w.f (test up to 5% o.w.f)): 2.38 Log | Log reduction of antimicrobial performance of each active ingredient (E. coli (ATCC 25922); exhaust 80° C., 60 min, dosage 2% o.w.f): 2.38 Log | Log reduction of antimicrobial performance of each active ingredient (E. coli (ATCC 25922); exhaust 80° C., 60 min, dosage 3% o.w.f): 2.41 Log | Log reduction of antimicrobial performance of each active ingredient (E. coli (ATCC 25922); exhaust 80° C., 60 min, dosage 4% o.w.f): 2.42 Log | Log reduction of antimicrobial performance of each active ingredient (E. coli (ATCC 25922); exhaust 80° C., 60 min, dosage 5% o.w.f): 2.43 Log | Log reduction of antimicrobial performance of each active ingredient (E. coli (ATCC 25922); exhaust 80 ° C., solution dosage 1% o.w.f, process time 10 min): 0.78 Log | Log reduction of antimicrobial performance of each active ingredient (E. coli (ATCC 25922); exhaust 80 ° C., solution dosage 1% o.w.f, process time 20 min): 1.11 Log | Log reduction of antimicrobial performance of each active ingredient (E. coli (ATCC 25922); exhaust 80 ° C., solution dosage 1% o.w.f, process time 30 min): 1.41 Log | Log reduction of antimicrobial performance of each active ingredient (E. coli (ATCC 25922); exhaust 80 ° C., solution dosage 1% o.w.f, process time 40 min): 1.84 Log | Log reduction of antimicrobial performance of each active ingredient (E. coli (ATCC 25922); exhaust 80 ° C., solution dosage 1% o.w.f, process time 50 min): 2.38 Log | Log reduction of antimicrobial performance of each active ingredient (E. coli (ATCC 25922); exhaust 80 ° C., solution dosage 1% o.w.f, process time 60 min): 2.56 Log | Log reduction of antimicrobial performance of each active ingredient (E. coli (ATCC 25922); exhaust 80 ° C., solution dosage 1% o.w.f, process time 70 min): 2.58 Log | Log reduction of antimicrobial performance of each active ingredient (E. coli (ATCC 25922); exhaust 80 ° C., solution dosage 1% o.w.f, process time 80 min): 2.61 Log | Log reduction of antimicrobial performance of each active ingredient (E. coli (ATCC 25922); exhaust 80 ° C., solution dosage 1% o.w.f, process time 90 min): 2.62 Log | Performance Test-Log reduction of antimicrobial performance (E. coli (ATCC 25922); curing 120° C.): 0.05 Log | Performance Test-Log reduction of antimicrobial performance (E. coli (ATCC 25922); curing 140° C.): 0.17 Log | Performance Test-Log reduction of antimicrobial performance (E. coli (ATCC 25922); curing 150° C.): 0.27 Log | Performance Test-Log reduction of antimicrobial performance (E. coli (ATCC 25922); curing 160° C.): 0.57 Log
